According to patent US9051309B2, “3,5-disubstituted-1,3,4-oxadiazol-2(3H)-ones and compositions and methods for controlling nematode pests” (Monsanto Technology LLC, priority 2013, dated 2015):
Marks after values point to notes of the source that are not given here.

Columns and labels:
[1] = test system: Meloidogyne incognita nematodes; assay: Miniaturized greenhouse nematicidal efficacy assay on cucumber seedlings in sand vials (root gall rating); conditions: 500 M. incognita eggs, harvest 10 to 12 days after inoculation, average of triplicate ratings
Experimental: A miniaturized greenhouse assay was conducted to study the effects of several 3,5-disubstituted-1,3,4-oxadiazol-2(3H)-one compounds on Meloidogyne incognita nematodes.
Cucumber seeds were sprouted for 3 days in moist paper towels. Acceptable sprouts were 3 to 4 cm long, with several lateral roots just emerging.
Each test solution was evaluated in triplicate. Dry sand (10 mL) was added to each vial. Seedlings were planted by tilting the vial and laying the seedling in the correct orientation so that the cotyledons were just above the sand, and then tilting back to cover the radicles with sand. A sample of the test solution (3.3 mL) was then added to each vial, and the vials were placed in racks under fluorescent light banks. The vials were inoculated two days after planting by adding 500 vermiform M. incognita eggs to each vial in deionized or spring water (50 μL). The vials were then kept under the fluorescent lamps at ambient room temperature and watered as needed with deionized water (1 mL), usually twice during duration of test.
Harvest of the cucumber plants was performed 10 to 12 days after inoculation by washing sand off the roots. A root gall rating was assigned using the following Gall rating scale (Gall: % root mass galled): 0=0-5%; 1=6-20%; 2=21-50%; and 3=51-100%.
Comparative solutions comprising other commercially available nematicidal compounds were also evaluated as controls.

[2] = test system: soybean cyst nematode (SCN); assay: SCN greenhouse sand assay on soybean plants; type: in vivo; conditions: SCN eggs about four hours after application, rated 28 days after egg inoculation
Experimental: (§1) First, a concentrate was prepared by dissolving 2 milligrams of the test compound in 2 mL of an acetone solvent. Test solutions were then prepared by combining an appropriate amount of the concentrate with an aqueous surfactant solution comprising TRITON X100 (0.05%).
A similar experiment was conducted with regard to control of soybean cyst nematode (SCN) on soybean plants. Soybean seeds were planted in a media consisting of 80% sand and 20% silt loam soil (v/v) in two inch square plastic pots. […] Approximately four hours after application of the nematicidal test solution, the nematode soybean cyst nematode (SCN) eggs were applied using the procedure described above. The soybean plants were rated for root galling 28 days after the egg inoculation.

[3] = test system: root knot nematode (RKN); assay: RKN greenhouse soil assay on cucumber plants (7 day longevity test); type: in vivo; conditions: inoculated 7 days after application, root galling rated 14 days after egg inoculation, galling reduction relative to control blank
Experimental: as §1
Cucumber seeds were planted in a sandy soil mixture in two inch square plastic pots. When the cotyledons were fully opened and just as the first leaf began to emerge, usually 7 days after planting, a nematicidal test solution was applied to each pot. Five milliliters of the appropriate chemical solution was pipetted to the media surface, making sure to avoid contact with the base of the plant. Immediately following chemical application, using a mist nozzle, the pot surface was wetted sufficiently to saturate the pot, effectively watering the test solution into the soil.
Seven days following application of the test solution, each pot was inoculated with root knot nematode (RKN) eggs. A nematode egg slurry was prepared by adding RKN nematode eggs to distilled water to create a concentration of 1000 vermiform eggs […] of water. […]
The cucumber plants were rated for root galling 14 days after the egg inoculation. […] A commercially available nematicide, fenamiphos, was also evaluated for comparison.

[4] = test system: root knot nematode (RKN); assay: Seed treatment on cucumber for RKN control; type: in vivo; conditions: 1000 root knot eggs five days after planting, galling rated 14 days after inoculation, versus untreated blank
Experimental: The excess of 30% by weight of test compound was added for each treatment that would equal 130% of the desired rate to assure target seed loading. The test compound (the amount as described in Table 3A below) and surfactant (optional) were dissolved in 3 mL acetone. AGRIMER VA-6 inert polymer was added at a concentration of 15% of the total test compound weight. Seeds were placed in the drum of the batch lab treater. The drum was rotated. The solutions of test compositions as described above were pipette onto seeds. The drum continued to rotate until the seed were dry.
3 inch by 3 inch plastic pots were filled with a media consisting of 80% sand and 20% silt loam soil (v/v). Treated cucumber seeds were planted ½ inch below the soil surface. Pots were watered as needed. Five days after planting the cucumber plants had the first true leaf emerging and each pot was inoculated with 1000 vermiform root knot eggs. The cucumber plants were rated for root galling 14 days after inoculation. The gall ratings were scored on a scale of 0-100 where, 0=no galls and 100=completely galled. Percent control was determined by comparison to the blank (untreated).

[5] = 40 ppm, scale 0=0-5%, 1=6-20%, 2=21-50%, 3=51-100% root mass galled

Molecule	gall ratings ([1]; 1 ppm, scale 0-3)	gall ratings ([1]; 8 ppm, scale 0-3)	gall ratings [1, 5]	also measured
O=c1oc(-c2ccc(Cl)cc2)nn1-c1cccs1 [Formula IIa-iv, 5-(4-chlorophenyl)-3-(thiophen-2-yl)-1,3,4-oxadiazol-2(3H)-one]	3.00	1.67	1.00	–
O=c1oc(-c2cccs2)nn1-c1ccccc1 [Formula Ia-i, 3-phenyl-5-(thiophen-2-yl)-1,3,4-oxadiazol-2(3H)-one]	–	2.00	1.00	–
O=c1oc(-c2ccco2)nn1-c1ccccc1 [Formula Ia-ii, 5-(furan-2-yl)-3-phenyl-1,3,4-oxadiazol-2(3H)-one]	3.00	1.33	0.00	–
O=c1oc(-c2cccs2)nn1-c1ccc(Cl)cc1 [Formula Ia-iii, 3-(4-chlorophenyl)-5-(thiophen-2-yl)-1,3,4-oxadiazol-2(3H)-one]	0.00	0.33	0.00	Percent Control ([2]; application rate 0.1 kg/ha): 29^a Percent; Percent Control ([2]; application rate 0.25 kg/ha): 56^a Percent; Percent Control ([3]; application rate 0.1 kg/ha): 63^a Percent; Percent Control ([3]; application rate 0.25 kg/ha): 70^a Percent; Percent Control ([4]; seed treatment 0.1 mg a.i./seed): 12^b Percent; Percent Control ([4]; seed treatment 0.25 mg a.i./seed): 25^b Percent; Percent Control ([4]; seed treatment 0.5 mg a.i./seed): 62^a Percent
O=c1oc(-c2cccs2)nn1-c1ccc(F)cc1 [Formula Ia-iv, 3-(4-fluorophenyl)-5-(thiophen-2-yl)-1,3,4-oxadiazol-2(3H)-one]	3.00	2.00	1.33	–
O=c1oc(-c2ccco2)nn1-c1ccc(Cl)cc1 [Formula Ia-v, 3-(4-chlorophenyl)-5-(furan-2-yl)-1,3,4-oxadiazol-2(3H)-one]	1.67	1.00	0.33	–
O=c1oc(-n2cccc2)nn1-c1ccccc1 [Formula Ic-i, 3-phenyl-5-(1H-pyrrol-1-yl)-1,3,4-oxadiazol-2(3H)-one]	–	0.33	0.00	–
O=c1oc(-n2cccc2)nn1-c1ccc(Cl)cc1 [Formula Ic-ii, 3-(4-chlorophenyl)-5-(1H-pyrrol-1-yl)-1,3,4-oxadiazol-2(3H)-one]	2.33	1.67	1.00	–
CNC(=O)O/N=C(\SC)C(=O)N(C)C [Oxamyl, reference compound]	–	–	–	Percent Control ([2]; application rate 0.1 kg/ha): 59^a Percent; Percent Control ([2]; application rate 0.25 kg/ha): 79^a Percent
Abamectin [reference compound]	1.67^b	–	–	Percent Control ([4]; seed treatment 0.2 mg a.i./seed): 37^a Percent
